{
  "source": "patent US5547980A",
  "about": "“Bicyclic sulfones, processes for their production and pharmaceutical agents containing them” (Boehringer Mannheim GmbH, priority 1991, dated 1996)",
  "note": "Counter-ions that a name gives are not always drawn.",
  "data": [
    {"tested_on": "passively sensitized guinea-pig lung parenchymal strips", "test": "Inhibition of the antigen-induced constriction of passively sensitized guinea-pig lung parenchymal strips in vitro (organ bath)", "format": "cell-based, guinea-pig (Pirbright-White)", "details": "Cavia porcellus, 20 μg/ml, ovalbumin 0.1 μg/ml, 20 min/37° C. preincubation time (organ bath technique)", "protocol": "(§1) Inhibition of the antigen-induced constriction of passively sensitized guinea-pig - lung parenchymal - strips in vitro (organ bath) For the in vitro examination of the compounds according to the invention, the inhibition of the antigen-induced constriction of passively sensitized guinea-pig lung parenchymal strips was measured as described in the following: Pirbright-White guinea-pigs were stunned by a blow on the neck and exsanguinated. The lungs were rinsed substantially free of blood in situ using Krebs buffer, pH 7.4. Subsequently the lung was excised, cut into strips (ca. 20×4×4 mm) and the strips were passively sensitized for one hour at room temperature with a 1:50 dilution of a homologous anti-ovalbumin antiserum and then washed once with Krebs buffer. The antiserum had previously been produced in guinea-pigs of the same strain according to […] (1) by repeated injection of ovalbumin (2×crystallized) with addition of complete Freund's adjuvant. The antiserum was stored undiluted at -18° C. until use. Subsequently the lung strips were suspended individually in 10 ml water baths on an isometric measuring recorder with an initial tension of 1.2 g. Afterwards the baths were filled with Krebs buffer and gassed continuously at 37° C. with O2 (95%) and CO2 (5%). The constrictions of the lung strips were recorded via an amplifier on a recorder. […] The inhibitory effects of the compounds according to the invention were expressed as percentage reduction of the constriction amplitudes of the \"samples with test substance\" in relation to the \"untreated control constrictions\". (1) […]. Johnstone Quantitative studies on anaphylaxis in guinea-pigs passively sensitized with homologous antibody. Inter. Arch. Allergy 41, 648-454 (1971) |% inhibition of the ovalbumin (0.1 μg/ml) induced |constriction of passively sensitized lung parenchymal strips |(guinea-pig) |20 min/37° C. preincubation time (organ bath technique)", "units": {"inhibition at 20 µg/mL": "%"}, "values": [
      {"compound": "CCN(CC)CC1=Cc2ccc(Cl)cc2S1(=O)=O", "note": "[Example 1, 6-chloro-2-(N,N-diethylamino-methyl)benzo[b]thiophene-1,1 dioxide]", "inhibition at 20 µg/mL": 53},
      {"compound": "CCCCNC1CS(=O)(=O)c2cc(Cl)ccc2C1NCCCC", "note": "(stereo not drawn) [Example 5l), 7-chloro-3,4-bis-n-butyl-amino-benzo[b]thian-1,1-dioxide-dihydrochloride]", "inhibition at 20 µg/mL": 25},
      {"compound": "CCN(CC)CC1=Cc2ccc(Cl)c(Cl)c2S1(=O)=O", "note": "[Example 7, 6,7-dichloro-2-(N,N-diethylamino-methyl)benzo[b]thiophene-1,1-dioxide-hydrochloride]", "inhibition at 20 µg/mL": 88},
      {"compound": "CCN(CC)CC1=Cc2cc(Cl)c(Cl)cc2S1(=O)=O", "note": "[Example 6, 5,6-dichloro-2-(N,N-diethylamino-methyl)benzo[b]-thiophene-1,1-dioxide-hydrochloride]", "inhibition at 20 µg/mL": 51},
      {"compound": "O=S1(=O)CC(N2CCCC2)C(N2CCCC2)c2ccc(Cl)cc21", "note": "(stereo not drawn) [3a), 7-chloro-3,4-bis-pyrrolidino-benzo[b]thian-1,1-dioxide]", "inhibition at 20 µg/mL": 25}
    ]},
    {"tested_on": "passively sensitized guinea-pig lung parenchymal strips", "test": "Inhibition of the antigen-induced constriction of passively sensitized guinea-pig lung parenchymal strips in vitro (organ bath)", "format": "cell-based, guinea-pig (Pirbright-White)", "details": "Cavia porcellus, 200 μg/ml (footnote *), ovalbumin 0.1 μg/ml, 20 min/37° C. preincubation time (organ bath technique)", "protocol": "as §1", "units": {"inhibition at 200 µg/mL": "%"}, "values": [
      {"compound": "Cn1c(=O)c2[nH]cnc2n(C)c1=O", "note": "[aminophylline, reference compound]", "inhibition at 200 µg/mL": 26}
    ]}
  ]
}
